Measured values: US20190343796A1, “COMPOSITION FOR EXTERNAL USE” (FUJIFILM Toyama Chemical Co., Ltd., priority 2016, published 2019)

Experiment: Solubility of maleate of compound A in representative solvents
Assay type: physicochemical
Excerpt: Among these solvents, a solvent having a high solubility of compound A and a salt thereof is preferred.

Solubility of maleate of compound A at 25° C. (Benzyl alcohol, 25° C.): 35 g/100 g of solvent
Solubility of maleate of compound A at 25° C. (Butylene glycol, 25° C.): 5 g/100 g of solvent
Solubility of maleate of compound A at 25° C. (Dimethyl sulfoxide, 25° C.): >50 g/100 g of solvent
Solubility of maleate of compound A at 25° C. (Dipropylene glycol, 25° C.): 8 g/100 g of solvent
Solubility of maleate of compound A at 25° C. (Ethanol, 25° C.): 3 g/100 g of solvent
Solubility of maleate of compound A at 25° C. (N-methyl-2-pyrrolidone, 25° C.): >50 g/100 g of solvent
Solubility of maleate of compound A at 25° C. (Polyethylene glycol 200, 25° C.): 10 g/100 g of solvent
Solubility of maleate of compound A at 25° C. (Polyethylene glycol 400, 25° C.): 16 g/100 g of solvent
Solubility of maleate of compound A at 25° C. (Propylene glycol, 25° C.): 10 g/100 g of solvent
Structure (SMILES): OC1CN(CCCOCCc2ccc3sccc3c2)C1 [maleate of compound A, 1-(3-(2-(1-benzothiophen-5-yl)ethoxy)propyl)azetidin-3-ol]
